Source: US20190071670A1, “Methods Of Treatment For Alpha-1 Antitrypsin Deficiency” (Arrowhead Pharmaceuticals, Inc., priority 2016, published 2019)
“And” between values parts separate entries of the source, which are not always exact repeats. Equal values may be shown once.

What was measured:
[1] = test system: hAAT; assay: Serum hAAT protein levels in PiZ mice (ELISA); format: in vivo, human (expressed in PiZ mice); conditions: for Normalized serum hAAT levels / Serum hAAT normalized to Day 1 and control / Serum hAAT normalized to day 1: PiZ mice; for Normalized serum hAAT levels: normalized to day 1 and saline control; for Serum hAAT normalized to Day 1 and control: single IV 4 mg/kg + 8 mg/kg MLP delivery polymer; for Serum hAAT normalized to day 1: single IV 6 mg/kg with 6 mg/kg MLP delivery polymer; for Serum hAAT normalized to day 1 and controls: female PiZ mice, single IV 8 mg/kg + 8 mg/kg MLP delivery polymer
Method: Human AAT protein levels in serum were monitored for 29 days. At the indicated times, blood samples were collected and assayed for hAAT by ELISA. Day 1 samples were collected prior to trigger administration. For mRNA analysis, 3-4 mice were euthanized at each of days 3, 8, 15, 22, and 29. For euthanized mice, cardiac stick were performed for serum isolation for AAT ELISA (200 μl serum). Half of the left lateral liver lobe was collected and snap-freeze in liquid nitrogen for RNA isolation. The remainder of the left lobes were embedded into paraffin blocks for PAS-D staining with hematoxylin as counter-stain. Serum hAAT levels in mice given AAT Duplex Pair SEQ ID NO: 5/6 were 95% reduced on day 8 and remained reduced to day 29, at which time they were 79% reduced. Mice given AAT Duplex Pair SEQ ID NO: 5/6 were euthanized at either day 3, 8, 15, 22 or 29. Mice given saline or Luciferase siRNA control (SEQ ID 7/8) were euthanized on day 29. Levels of hAAT mRNA in the livers were measured by RT-qPCR. The hAAT mRNA in mice given AAT Duplex Pair SEQ ID NO: 5/6 was reduced by 97% on day 3 and remained reduced on day 29, at which time levels were 56% reduced. The size of the globules and the area of the liver covered by globules was digitally quantitated from liver specimens stained with PAS-D. Duplex Pair SEQ ID NO: 5/6 treated mice had 70% smaller globules at day 15 and 62% smaller globules at day 29. The area of the liver covered with globules was 83% reduced on day 15 and 72% reduced on day 29 (FIG. 5).

[2] = test system: Z-hAAT; assay: Semi-quantitative Western blot of soluble (monomer) and insoluble (polymer) Z-hAAT in PiZ mouse liver; format: in vivo, human (expressed in PiZ mice); conditions: PiZ mice liver; four biweekly IV doses 8 mg/kg with 8 mg/kg MLP delivery polymer for 8 weeks

Which results are given for “Duplex Pair SEQ ID NO: 5/6: double-stranded AAT RNAi agent: modified antisense strand SEQ ID NO: 5 annealed to Chol-TEG sense strand SEQ ID NO: 6 (antisense TGGAACUUGGUGAUGAUAUTT; sense UAUAUAUCAUCACCAAGUUCCAT; Chol-TEG on sense strand; chemical modifications; antisense strand of dsRNA; modified_base 7 /mod_base = “2′-3′ seco corresponding nucleotide”; modified_base 2,4,6,8,10,12,14,16,18 /mod_base = “2′-deoxy-2′-fluoro corresponding nucleoside”; modified_base 3,5,9,11,13,15,17,19 /mod_base = “2′-O-methyl corresponding nucleoside”; modified_base 21 /mod_base = “5′-phosphorothioate corresponding nucleotide”; sense strand of dsRNA; modified_base 2 /mod_base = “2′-hydroxy corresponding nucleoside”; modified_base 4,6,8,10,12,14,16,18,20,22 /mod_base = “2′-deoxy-2′-fluoro corresponding nucleoside”; …)”?
Normalized serum hAAT levels ([1]; single IV 4 mg/kg + 4 mg/kg MLP, day 8): 0.03 ± 0.01; Normalized serum hAAT levels ([1]; single IV 4 mg/kg + 4 mg/kg MLP, day 15): 0.23 ± 0.04; Normalized serum hAAT levels ([1]; single IV 4 mg/kg + 4 mg/kg MLP, day 20): 0.32 ± 0.05; Normalized serum hAAT levels ([1]; single IV 4 mg/kg + 4 mg/kg MLP, day 29): 0.66 ± 0.10; Normalized serum hAAT levels ([1]; single IV 4 mg/kg + 4 mg/kg MLP, day 36): 0.83 ± 0.06; Normalized serum hAAT levels ([1]; single IV 4 mg/kg + 4 mg/kg MLP, day −7): 0.68 ± 0.07; Serum hAAT normalized to Day 1 and control ([1]; Day 1): 1.00; Serum hAAT normalized to Day 1 and control ([1]; Day 3): 0.20 ± 0.04; Serum hAAT normalized to Day 1 and control ([1]; Day 8): 0.05 ± 0.01; Serum hAAT normalized to Day 1 and control ([1]; Day 15): 0.09 ± 0.01; Serum hAAT normalized to Day 1 and control ([1]; Day 22): 0.28 ± 0.05; Serum hAAT normalized to Day 1 and control ([1]; Day 29): 0.35 ± 0.05; Serum hAAT normalized to Day 1 and control ([1]; Day 35): 0.81 ± 0.12; Serum hAAT normalized to Day 1 and control ([1]; Day −3): 0.73 ± 0.13; Serum hAAT normalized to day 1 ([1]; day 1 (reference)): 1.00; Serum hAAT normalized to day 1 ([1]; day 3, listed as AAT RNAi agent (SEQ ID NO: 5/6), 6 mg/kg): 0.326 ± 0.021 and 0.274 ± 0.072; Serum hAAT normalized to day 1 ([1]; day 10): 0.105 ± 0.033; Normalized serum hAAT levels ([1]; single IV 8 mg/kg + 2 mg/kg MLP, day 1): 1.00; Normalized serum hAAT levels ([1]; single IV 8 mg/kg + 2 mg/kg MLP, day 8): 0.09 ± 0.05; Normalized serum hAAT levels ([1]; single IV 8 mg/kg + 2 mg/kg MLP, day 15): 0.59 ± 0.16; Normalized serum hAAT levels ([1]; single IV 8 mg/kg + 2 mg/kg MLP, day 20): 0.74 ± 0.10; Normalized serum hAAT levels ([1]; single IV 8 mg/kg + 2 mg/kg MLP, day 29): 0.87 ± 0.20; Normalized serum hAAT levels ([1]; single IV 8 mg/kg + 2 mg/kg MLP, day 36): 0.74 ± 0.08; Normalized serum hAAT levels ([1]; single IV 8 mg/kg + 2 mg/kg MLP, day −7): 0.70 ± 0.15; Normalized serum hAAT levels ([1]; single IV 8 mg/kg + 4 mg/kg MLP, day 1): 1.00; Normalized serum hAAT levels ([1]; single IV 8 mg/kg + 4 mg/kg MLP, day 8): 0.04 ± 0.02; Normalized serum hAAT levels ([1]; single IV 8 mg/kg + 4 mg/kg MLP, day 15): 0.27 ± 0.05; Normalized serum hAAT levels ([1]; single IV 8 mg/kg + 4 mg/kg MLP, day 20): 0.35 ± 0.05; Normalized serum hAAT levels ([1]; single IV 8 mg/kg + 4 mg/kg MLP, day 29): 0.80 ± 0.20; Normalized serum hAAT levels ([1]; single IV 8 mg/kg + 4 mg/kg MLP, day 36): 1.00 ± 0.20; Normalized serum hAAT levels ([1]; single IV 8 mg/kg + 4 mg/kg MLP, day −7): 0.70 ± 0.24; Normalized serum hAAT levels ([1]; single IV 8 mg/kg + 8 mg/kg MLP, day 1): 1.00; Normalized serum hAAT levels ([1]; single IV 8 mg/kg + 8 mg/kg MLP, day 8): 0.02 ± 0.00; Normalized serum hAAT levels ([1]; single IV 8 mg/kg + 8 mg/kg MLP, day 15): 0.13 ± 0.06; Normalized serum hAAT levels ([1]; single IV 8 mg/kg + 8 mg/kg MLP, day 20): 0.16 ± 0.04; Normalized serum hAAT levels ([1]; single IV 8 mg/kg + 8 mg/kg MLP, day 29): 0.43 ± 0.08; Normalized serum hAAT levels ([1]; single IV 8 mg/kg + 8 mg/kg MLP, day 36): 0.78 ± 0.23; Normalized serum hAAT levels ([1]; single IV 8 mg/kg + 8 mg/kg MLP, day −7): 0.89 ± 0.54; Serum hAAT normalized to day 1 and controls ([1]; mice euthanized Day 3, Day 1): 1.000; Serum hAAT normalized to day 1 and controls ([1]; mice euthanized Day 3, Day 3): 0.255 ± 0.040; Serum hAAT normalized to day 1 and controls ([1]; mice euthanized Day 3, Day −2): 1.068 ± 0.070; Serum hAAT normalized to day 1 and controls ([1]; mice euthanized Day 8, Day 1): 1.000; Serum hAAT normalized to day 1 and controls ([1]; mice euthanized Day 8, Day 3): 0.184 ± 0.025; Serum hAAT normalized to day 1 and controls ([1]; mice euthanized Day 8, Day 8): 0.054 ± 0.004; Serum hAAT normalized to day 1 and controls ([1]; mice euthanized Day 8, Day −2): 0.895 ± 0.129; Serum hAAT normalized to day 1 and controls ([1]; mice euthanized Day 15, Day 1): 1.000; Serum hAAT normalized to day 1 and controls ([1]; mice euthanized Day 15, Day 3): 0.243 ± 0.060; Serum hAAT normalized to day 1 and controls ([1]; mice euthanized Day 15, Day 8): 0.066 ± 0.023; Serum hAAT normalized to day 1 and controls ([1]; mice euthanized Day 15, Day 15): 0.095 ± 0.063; Serum hAAT normalized to day 1 and controls ([1]; mice euthanized Day 15, Day −2): 0.66 ± 0.121; Serum hAAT normalized to day 1 and controls ([1]; mice euthanized Day 22, Day 1): 1.000; Serum hAAT normalized to day 1 and controls ([1]; mice euthanized Day 22, Day 3): 0.202 ± 0.054; Serum hAAT normalized to day 1 and controls ([1]; mice euthanized Day 22, Day 8): 0.044 ± 0.010; Serum hAAT normalized to day 1 and controls ([1]; mice euthanized Day 22, Day 15): 0.056 ± 0.011; Serum hAAT normalized to day 1 and controls ([1]; mice euthanized Day 22, Day 22): 0.100 ± 0.039; Serum hAAT normalized to day 1 and controls ([1]; mice euthanized Day 22, Day −2): 0.779 ± 0.280; Serum hAAT normalized to day 1 and controls ([1]; mice euthanized Day 29, Day 1): 1.000; Serum hAAT normalized to day 1 and controls ([1]; mice euthanized Day 29, Day 3): 0.238 ± 0.062; Serum hAAT normalized to day 1 and controls ([1]; mice euthanized Day 29, Day 8): 0.052 ± 0.015; Serum hAAT normalized to day 1 and controls ([1]; mice euthanized Day 29, Day 15): 0.057 ± 0.016; Serum hAAT normalized to day 1 and controls ([1]; mice euthanized Day 29, Day 22): 0.103 ± 0.032; Serum hAAT normalized to day 1 and controls ([1]; mice euthanized Day 29, Day 29): 0.209 ± 0.071; Serum hAAT normalized to day 1 and controls ([1]; mice euthanized Day 29, Day −2): 0.653 ± 0.102; reduction in insoluble Z-hAAT compared to saline [2]: 79%; reduction in soluble Z-hAAT compared to saline [2]: > 99%
